Test results reported in the supplement of paper PMC10307832.

Assays:
Assay in all cases: relative viability (nuclei count vs DMSO), 5 days (fraction); higher = more cells survive
[1] = compound: COc1cc(Nc2ncc(F)c(Nc3ccc4c(n3)NC(=O)C(C)(C)O4)n2)cc(OC)c1OC [R406]
Procedure, shortened: (§1)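 On vehicle-anchored 1536-well plates, lung cancer cell lines held overnight at 37 °C were pinned with five library-drug doses (not always all listed) spaced by √10. With no medium change over 5 days, they were then fixed, permeabilised and Hoechst-stained in one step and imaged at 4×. MetaXpress counted nuclei, and viability is the median across plates of treated-well over vehicle-well nuclei. Acceptance needed control CV below 25% and at least one doubling.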

[2] = compound: O=C(/C=C/c1cccnc1)NCCCCC1CCN(C(=O)c2ccccc2)CC1 [Daporinad]
Procedure, shortened: as §1

[3] = compound: COc1cc(Nc2ncc(F)c(Nc3ccc4c(n3)NC(=O)C(C)(C)O4)n2)cc(OC)c1OC [R406] + Cc1nc(NC(=O)N2CCC[C@H]2C(N)=O)sc1-c1ccnc(C(C)(C)C(F)(F)F)c1 [Alpelisib] (partner 2 µM)
Procedure, shortened: (§2)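 Nuclei were stained with Hoechst during a one-step fixation (final 0.05% Triton X-100, 1% formaldehyde, 1 ug/ml Hoechst) carried out 5 days after dosing, then counted on 4× images. The cells, lung cancer lines in 1536-well plates, had been dosed by pin tool the day after seeding with one drug alone or a fixed anchor-drug dose plus five library-drug doses (not always all listed) in √10 steps. Relative viability is the nuclei count in treated wells divided by that in vehicle wells, and each value is the median of duplicate plates.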

[4] = compound: O=C(/C=C/c1cccnc1)NCCCCC1CCN(C(=O)c2ccccc2)CC1 [Daporinad] + Nc1nc2[nH]cc(CCc3ccc(C(=O)N[C@@H](CCC(=O)O)C(=O)O)cc3)c2c(=O)[nH]1 [Pemetrexed] (partner 0.2 µM)
Procedure, shortened: as §2

Cell Line	relative viability ([1]; 0.08 µM)	relative viability ([1]; 0.253 µM)	relative viability ([1]; 0.8 µM)	relative viability ([1]; 2.53 µM)	relative viability ([1]; 8 µM)	relative viability ([2]; 0.0005 µM)	relative viability ([2]; 0.001581 µM)	relative viability ([2]; 0.005 µM)	relative viability ([2]; 0.01581 µM)	relative viability ([3]; first compound 0.08 µM)	relative viability ([3]; first compound 0.253 µM)	relative viability ([3]; first compound 0.8 µM)	relative viability ([3]; first compound 8 µM)	relative viability ([4]; first compound 0.0005 µM)	relative viability ([4]; first compound 0.001581 µM)	relative viability ([4]; first compound 0.005 µM)	relative viability ([4]; first compound 0.01581 µM)	relative viability ([3]; first compound 2.53 µM)
LU99A	0.984	0.983	1.22	0.796	0.824	0.975	1.09	1.08	0.966	0.462	0.468	0.617	0.193	0.165	0.142	0.18	0.156	
NCI-H650	0.895	1.12	1	0.791	0.653	0.899	0.953	1.05	1.01	1.25	1.04	1.16	0.802	0.903	0.949	1.02	1.16	0.87
HCC-78	0.953	1.08	1.06	0.708	0.48	0.81	0.938	1.06	1.12	0.313	0.33	0.377	0.214	0.869	0.897	0.798	0.874	0.295
NCI-H1755	0.947	1.05	1.13	0.838	0.796	0.966	0.989	1.03	1.02	0.834	1.05	1.04	0.21	0.421	0.397	0.454	0.469	0.632
NCI-H3122	0.948	1	0.989	0.945	0.977	0.955	1	1.05	0.984	0.729	0.807	0.739	0.678	0.199	0.185	0.185	0.203	0.695
NCI-H358	0.935	1.04	1.03	0.339	0.246	0.877	0.929	1.03	1.06	0.877	0.908	1	0.234	0.199	0.168	0.183	0.185	0.373
PC-3 [JPC-3]	1.04	1.17	1.04	0.819	0.647	1.02	1.1	1.14	1.12	0.988	1.15	1.13	0.699	1.05	1.14	1.34	1.07	0.902
SK-MES-1	0.989	1.05	1.06	0.648	0.322	0.978	1.05	1.12	1.03	0.749	0.964	0.957	0.406	1.04	0.816	0.955	0.64	0.414
NCI-H2347	1.06	1.18	1.11	0.935	0.796	1.13	1.13	1.02	1.09	0.984	1.15	1.12	0.856	0.441	0.402	0.472	0.454	0.791
